Measured values published in PMC5974779, “Prediction of Drug-Induced Hepatotoxicity Using Long-Term Stable Primary Hepatic 3D Spheroid Cultures in Chemically Defined Conditions” (Toxicological Sciences, 2018).
Like-named read-outs stand apart in the source and are kept apart here.

Legend:
[1] = cited from earlier work
[2] = tested on: PHH spheroids (hanging-drop); details: cited from earlier work
[3] = tested on: primary human hepatocytes (PHH) 3D spheroids; assay: CD-spheroid hepatotoxicity: ATP viability (CellTiter-Glo) of PHH 3D spheroids after 14 days repeated exposure at 1×, 5×, 20× cmax
clinical DILI in man = details: cited from earlier work
[4] = ref DrugBank and Prescribers' Digital Reference database; cited from earlier work
PHH 2D sandwich cultures = details: cited from earlier work
in vitro = details: human
[5] = tested on: primary human hepatocytes (PHH) 3D spheroids
[6] = tested on: Wistar rat primary hepatocyte 3D spheroids; assay: Animal hepatocyte spheroid hepatotoxicity (ATP viability, 14 days), Wistar rat; format: cell-based; details: Wistar rat hepatocyte spheroids, 1×, 5×, 20× human cmax, 14 days
[7] = tested on: CD1 mouse primary hepatocyte 3D spheroids; assay: Animal hepatocyte spheroid hepatotoxicity (ATP viability, 14 days), CD1 mouse; format: cell-based; details: CD1 mouse hepatocyte spheroids, 1×, 5×, 20× human cmax, 14 days
[8] = tested on: rhesus monkey primary hepatocyte 3D spheroids; assay: Animal hepatocyte spheroid hepatotoxicity (ATP viability, 14 days), rhesus monkey; format: cell-based; details: rhesus monkey hepatocyte spheroids, 1×, 5×, 20× human cmax, 14 days
[9] = therapeutic total cmax, ref PMID
[10] = PHH hanging-drop spheroids, 100x Cmax, ref Proctor 2017
[11] = PHH spheroids in chemically defined conditions, 20x Cmax
[12] = FDA drug labeling DILI concern, ref Chen et al., 2011
[13] = FDA drug labeling DILI score, ref Chen et al., 2011
[14] = clinical DILI classification in man (POS/NEG)
[15] = clinical DILI classification used in this study, Supplementary Table 2, ref Chen et al., 2011, Guo et al., 2005, O'Brien et al., 2006, Sakatis et al., 2012, Suzuki et al., 2010, Xu et al., 2008
[16] = clinical DILI classification, Supplementary Table 1, ref Chen et al., 2011, Guo et al., 2005, O'Brien et al., 2006, Sakatis et al., 2012, Suzuki et al., 2010, Xu et al., 2008
[17] = reported pattern of liver damage, Supplementary Table 2, ref literature
[18] = clinical DILI classification, ref Xu et al. (2008)
[19] = PHH 2D sandwich cultures, 100x Cmax, ref Xu 2008
[20] = DILI classification score, ref Guo et al. (2005)

Compound: COC(c1ccccc1)(c1ccccc1)[C@H](Oc1nc(C)cc(C)n1)C(=O)O [Ambrisentan]
- Cmax [1, 9]: 2270 nM
- Hanging-drop spheroids (Proctor 2017) 100x [2, 10]: Negative
- Chemically defined spheroids (this study) 20x [3, 11]: Negative
- hepatotoxicity evaluation in CD-spheroids ([3]; PHH spheroids, 1×, 5×, 20× cmax, 14 days repeated exposure, ATP): did not result in a significant reduction of hepatocyte viability
- FDA (Severity) (clinical DILI in man; [12]): less DILI concern
- FDA (0-8) (clinical DILI in man; [13]): 7
- DILI in vivo (clinical DILI in man; [14]): NEG
- Classified as (clinical DILI in man; [15]): NEG
- DILI in vivo (clinical DILI in man; [16]): NEG
- Type of DILI (clinical DILI in man; [17]): Non-hepatotoxic
- Clinical DILI classification (Figure 5) (clinical DILI in man; structural analogue pairs, Figure 5, ref Chen et al., 2011, Xu et al., 2008 and others): DILI negative
- Extent of hepatic metabolism [4]: Extensive

Compound: CC(CCc1ccc(O)cc1)NCCc1ccc(O)c(O)c1 (centres unmarked) [Dobutamine]
- Cmax [1, 9]: 1340 nM
- Chemically defined spheroids (this study) 20x [3, 11]: Negative
- FDA (Severity) (clinical DILI in man; [12]): no DILI concern
- FDA (0-8) (clinical DILI in man; [13]): 0
- DILI in vivo (clinical DILI in man; [14]): NEG
- Classified as (clinical DILI in man; [15]): NEG
- DILI in vivo (clinical DILI in man; [16]): NEG
- Xu et al. (2008) (clinical DILI in man; [18]): Negative
- Type of DILI (clinical DILI in man; [17]): Non-hepatotoxic
- Extent of hepatic metabolism [4]: Extensive
- 2Dsw (Xu 2008) 100x (PHH 2D sandwich cultures; [19]): Negative

Compound: Cn1cnc([N+](=O)[O-])c1Sc1ncnc2nc[nH]c12 [Azathioprine]
- Cmax [1, 9]: 7210 nM
- Hanging-drop spheroids (Proctor 2017) 100x [2, 10]: Positive
- Classified as (clinical DILI in man; in vivo): POS
- Clinical DILI class (panel heading of Figure 4) (clinical DILI in man; in vivo): High DILI concern
- DILI in vivo (clinical DILI in man; in vivo): POS
- FDA (0-8) (clinical DILI in man; in vivo): 5
- FDA (Severity) (clinical DILI in man; in vivo): less DILI concern
- Guo et al. (2005) (clinical DILI in man; in vivo): 3
- O'Brien et al. (2003) (clinical DILI in man; in vivo): Moderately
- Sakatis et al. (2012) (clinical DILI in man; in vivo): Hepatotoxic
- Suzuki et al. (2010) (clinical DILI in man; in vivo): 1
- Type of DILI (clinical DILI in man; in vivo): Cholestatic injury or Mixed hepatitis
- Xu et al. (2008) (clinical DILI in man; in vivo): Positive
- Extent of hepatic metabolism [4]: Extensive
- viability at 14 days, 1 × cmax (in vitro): < 10%
- 2Dsw (Xu 2008) 100x (PHH 2D sandwich cultures; [19]): Positive
- Chemically defined spheroids (this study) 20x [5]: Positive

Compound: CC(CN1c2ccccc2Sc2ccccc21)N(C)C (centres unmarked) [Promethazine]
- Cmax [1, 9]: 60 nM
- Guo et al. (2005) (clinical DILI in man; [20]): 3
- FDA (0-8) (clinical DILI in man; [13]): 5
- DILI in vivo (clinical DILI in man; [14]): NEG
- Classified as (clinical DILI in man; [15]): NEG
- DILI in vivo (clinical DILI in man; [16]): NEG
- Xu et al. (2008) (clinical DILI in man; [18]): Negative
- Type of DILI (clinical DILI in man; [17]): Non-hepatotoxic
- Extent of hepatic metabolism [4]: Extensive
- hepatotoxicity evaluation in spheroids [6]: indicated toxicity
- 2Dsw (Xu 2008) 100x (PHH 2D sandwich cultures; [19]): Negative
- Chemically defined spheroids (this study) 20x [5]: Negative

Compound: O=C(c1ccc(OCCN2CCCCC2)cc1)c1c(-c2ccc(O)cc2)sc2cc(O)ccc12 [Raloxifene]
- Cmax [1, 9]: 1 nM
- Classified as (clinical DILI in man; in vivo): NEG
- Clinical DILI class (panel heading of Figure 4) (clinical DILI in man; in vivo): DILI negative
- DILI in vivo (clinical DILI in man; in vivo): NEG
- FDA (0-8) (clinical DILI in man; in vivo): 0
- Sakatis et al. (2012) (clinical DILI in man; in vivo): non-hepatotixic
- Type of DILI (clinical DILI in man; in vivo): Non-hepatotoxic
- Xu et al. (2008) (clinical DILI in man; in vivo): Negative
- hepatotoxicity evaluation in spheroids [7]: incorrectly flagged as hepatotoxic
- hepatotoxicity evaluation in spheroids [8]: mild but significant toxicity
- 2Dsw (Xu 2008) 100x (PHH 2D sandwich cultures; [19]): Negative
- Chemically defined spheroids (this study) 20x [5]: Negative

Compound: CC(COc1ccccc1)N(CCCl)Cc1ccccc1 (centres unmarked) [Phenoxybenzamine]
- Cmax ([1]; human, in vivo): 180 nM
- Hanging-drop spheroids (Proctor 2017) 100x [2]: Negative
- Chemically defined spheroids (this study) 20x [3, 11]: Negative
- Classified as (clinical DILI in man; in vivo): NEG
- Clinical DILI class (panel heading of Figure 4) (clinical DILI in man; in vivo): DILI negative
- DILI in vivo (clinical DILI in man; in vivo): NEG
- FDA (0-8) (clinical DILI in man; in vivo): 0
- FDA (Severity) (clinical DILI in man; in vivo): no DILI concern
- Sakatis et al. (2012) (clinical DILI in man; in vivo): non-hepatotixic
- Type of DILI (clinical DILI in man; in vivo): Non-hepatotoxic
- Xu et al. (2008) (clinical DILI in man; in vivo): Negative
- 2Dsw (Xu 2008) 100x (PHH 2D sandwich cultures): Negative

Compound: Aflatoxin B1
- Cmax ([1]; human, in vivo): 30 nM
- Chemically defined spheroids (this study) 20x [3]: Positive
- Classified as (clinical DILI in man; in vivo): POS
- DILI in vivo (clinical DILI in man; in vivo): POS
- Type of DILI (clinical DILI in man; in vivo): Hepatocellular injury

Compound: CC(=O)N1CCN(c2ccc(OCC3COC(Cn4ccnc4)(c4ccc(Cl)cc4Cl)O3)cc2)CC1 (centres unmarked) [Ketoconazole]
- Hanging-drop spheroids (Proctor 2017) 100x [2, 10]: Positive
- Classified as (clinical DILI in man; in vivo): POS
- Clinical DILI class (panel heading of Figure 4) (clinical DILI in man; in vivo): Severe DILI
- DILI in vivo (clinical DILI in man; in vivo): POS
- FDA (0-8) (clinical DILI in man; in vivo): 8
- FDA (Severity) (clinical DILI in man; in vivo): most DILI concern
- Guo et al. (2005) (clinical DILI in man; in vivo): 3
- O'Brien et al. (2003) (clinical DILI in man; in vivo): Severely
- Sakatis et al. (2012) (clinical DILI in man; in vivo): Hepatotoxic
- Suzuki et al. (2010) (clinical DILI in man; in vivo): 2
- Type of DILI (clinical DILI in man; in vivo): Hepatocellular injury or Cholestatic injury
- Extent of hepatic metabolism [4]: Extensive
- viability at 14 days, 1 × cmax (in vitro): < 10%
- Chemically defined spheroids (this study) 20x [5]: Positive

Compound: Cc1ccc(C(=O)c2cc(O)c(O)c([N+](=O)[O-])c2)cc1 [Tolcapone]
- Cmax [1, 9]: 47600 nM
- Hanging-drop spheroids (Proctor 2017) 100x [2, 10]: Positive
- Classified as (clinical DILI in man; in vivo): POS
- Clinical DILI class (panel heading of Figure 4) (clinical DILI in man; in vivo): Severe DILI
- DILI in vivo (clinical DILI in man; in vivo): POS
- FDA (0-8) (clinical DILI in man; in vivo): 8
- FDA (Severity) (clinical DILI in man; in vivo): most DILI concern
- Guo et al. (2005) (clinical DILI in man; in vivo): 3
- Suzuki et al. (2010) (clinical DILI in man; in vivo): 3
- Type of DILI (clinical DILI in man; in vivo): Hepatocellular injury or Mixed hepatitis
- Extent of hepatic metabolism [4]: Extensive
- viability at 14 days, 1 × cmax (in vitro): < 10%
- Chemically defined spheroids (this study) 20x [5]: Positive

Compound: Cn1nnc2c(C(N)=O)ncn2c1=O [Temozolomide]
- Cmax [1, 9]: 26800 nM
- Chemically defined spheroids (this study) 20x [3, 11]: Negative
- Guo et al. (2005) (clinical DILI in man; [20]): 1
- FDA (0-8) (clinical DILI in man; [13]): 4
- DILI in vivo (clinical DILI in man; [14]): NEG
- Classified as (clinical DILI in man; [15]): NEG
- DILI in vivo (clinical DILI in man; [16]): NEG
- Xu et al. (2008) (clinical DILI in man; [18]): Negative
- Type of DILI (clinical DILI in man; [17]): Non-hepatotoxic
- Extent of hepatic metabolism [4]: Minimal
- 2Dsw (Xu 2008) 100x (PHH 2D sandwich cultures; [19]): Negative
